Experimental data taken from patent publication US10717746B2, “Chemical compounds” (ASTRAZENECA AB, priority 2015, dated 2020).

Assays:
[1] = target: T1, CDK9/CycT1 (Homo sapiens (Human), UniProt P50750); assay: CDK9 kinase assay, ATP concentration at Km (mobility shift, Caliper LC3000); type: biochemical; settings: 6 μM ATP, 3 nM CDK9/CycT1; read-out: CDK9 ATP conc. at Km (IC50)
Method: (§1) Activity of CDK9 was determined in-vitro using a mobility shift assay on a Caliper LC3000 reader (Caliper/PerkinElmer), which measures fluorescence of a phosphorylated and unphosphorylated fluorescent peptide substrate and calculates a ratiometric value to determine percent turnover. Phosphorylation of the peptide in the presence and absence of the compound of interest was determined. Enzyme/substrate/adenosine triphosphate (ATP) mix (3 nM CDK9/CycT1, 6 μM ATP, 1.5 μM CDK9 peptide substrate (FITC-X-GSRTPMY-NH2 (X: epsilon aminocaproic acid)), 50 mM HEPES (pH7.2), 1 mM dithiothreitol, 0.01% tween 20, 50 μg/mL bovine serum albumin, (final assay concentration)) (5 μl) was preincubated with 2 μl of compound for 15 minutes at 25° C. Reactions were initiated with 5 μl of 24 mM MgCl2 (10 mM final assay concentration) in buffer (50 mM HEPES (pH7.2), 1 mM dithiothreitol, 0.01% tween 20, 50 μg/mL bovine serum albumin, (final assay concentration) and incubated at 25° C. for 90 minutes and reactions were stopped by addition of 5 μl of Stop mix consisting of 65 mM HEPES (pH7.2), 35.5 mM EDTA, 0.227% Coatin Reagent 3 (Caliper/PerkinElmer), and 0.003% Tween. Phosphorylated and unphosphorylated substrate was detected by a Caliper LC3000 reader (Caliper/PerkinElmer) in the presence of separation buffer consisting of 100 mM HEPES (pH7.2), 15.8 mM EDTA, 0.1% Coatin Reagent 3 (Caliper/PerkinElmer), 0.015% Brij-35, 5% DMSO, and 5.6 mM MgCl2. CDK9 enzyme was acquired from Carna Biosciences (Catalogue number 04-110), the CDK9 peptide substrate was acquired from Intonation (Boston, Mass.; Custom-made).

[2] = target: T1, CDK9/CycT1; assay: CDK9 kinase assay, high ATP concentration (5 mM ATP); type: biochemical; settings: 1.5 nM CDK9, read-out: CDK9 High ATP conc. (IC50)
Method: as §1
High ATP assays were run the same way with the following modifications: the final assay concentration of CDK9 was 1.5 nM and the final assay concentration of ATP was 5 mM.

[3] = system: phosphorylation of RNA Polymerase II (RNAPII) at the Ser2 site in MCF7 cells; assay: MCF7 pSer2 RNAPII MOA assay (immunofluorescence); type: cell-based; settings: Homo sapiens, MCF7, 6 h, 6-hr treatment, read-out: p-Ser 2 RNAPII (IC50)
Method: MCF7 pSer2 RNAPII MOA Assay
This is an immunofluorescence assay to determine the effect of CDK9 inhibitors on phosphorylation of RNA Polymerase II (RNAPII) at the Ser2 site in the breast cancer cell line, MCF7. On day one, 2500 MCF7 cells/well were seeded in 30 μl of growth media (RPMI+10% FBS+1% L-Glu+P/S) in 384-well black-wall clear-bottom plates, incubate plates overnight at 37° C. incubator. On the second day, the cells were treated with CDK9 inhibitors (7 point dose response ranging from 3 μM to 0.004 μM) using an ECHO liquid handler (Labcyte). After 6-hr treatment at 37° C. incubator, the cells were fixed with 30 µl/well 7.4% paraformaldehyde for 15 min at room temperature; the cells were washed twice with PBS, then permeabilized with 0.3% Triton X/PBS for 5 min at room temperature. After washing cells with PBS, the cells were incubated with 1:2000 diluted Anti-Ser2 Phospho-RNA pol II antibody (Covance MMS-129R) in 3% FBS/0.1% PBST overnight at 4° C. On the next day, the cells were washed twice with 0.1% PBST, then incubated with 1:1000 diluted Alexa Fluor 488 Goat-anti-mouse antibody (Life Technologies A-11001) and 1:4000 diluted DAPI at room temperature in dark. After one hour incubation, the cells were washed twice with 0.1% PBST, and once with PBS. The plates where sealed and read on an Acumen eX3 microplate cytometer (TTP Labtech) to assess phosphorylation level in each well.

[4] = system: MV411 cells; assay: MV411 caspase activity assay (Caspase-Glo 3/7); type: cell-based; settings: Homo sapiens, MV4-11, 6 h, 6-hr treatment, caspase 3/7 induction
Method: MV411 Caspase Activity Assay
This is a cell assay to measure the induction of caspase activity in the acute myeloid leukemia cell line, MV411 after 6-hr treatment with CDK9 inhibitors. On the first day, 3000 MV411 cells/well were seeded in 50 μl of growth media (IMDM+10% FBS+2% L-Glu+P/S) in 384-well white plates, incubate plates in 37° C. incubator overnight. […] After 6 hour incubation in 37° C. incubator, 25 μl of Caspase-Glo 3/7 reagent (Promega) per well was added into each well, and plates were incubated at room temperature for 30 min in dark. The plates were read on an Infinite M200 microplate reader (Tecan) with a 100 ms integration time.

T1 sequence (P50750 whole entry): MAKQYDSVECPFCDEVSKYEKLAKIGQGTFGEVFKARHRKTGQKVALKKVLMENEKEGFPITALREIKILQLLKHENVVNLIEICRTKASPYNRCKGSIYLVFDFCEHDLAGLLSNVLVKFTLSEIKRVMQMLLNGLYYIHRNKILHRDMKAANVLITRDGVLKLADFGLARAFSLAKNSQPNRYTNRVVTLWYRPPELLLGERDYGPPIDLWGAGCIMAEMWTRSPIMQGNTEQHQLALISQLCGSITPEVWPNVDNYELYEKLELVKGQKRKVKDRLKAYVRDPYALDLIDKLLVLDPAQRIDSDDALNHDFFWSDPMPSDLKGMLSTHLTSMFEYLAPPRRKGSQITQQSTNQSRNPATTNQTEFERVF
T1 sequence (O60563 whole entry partner): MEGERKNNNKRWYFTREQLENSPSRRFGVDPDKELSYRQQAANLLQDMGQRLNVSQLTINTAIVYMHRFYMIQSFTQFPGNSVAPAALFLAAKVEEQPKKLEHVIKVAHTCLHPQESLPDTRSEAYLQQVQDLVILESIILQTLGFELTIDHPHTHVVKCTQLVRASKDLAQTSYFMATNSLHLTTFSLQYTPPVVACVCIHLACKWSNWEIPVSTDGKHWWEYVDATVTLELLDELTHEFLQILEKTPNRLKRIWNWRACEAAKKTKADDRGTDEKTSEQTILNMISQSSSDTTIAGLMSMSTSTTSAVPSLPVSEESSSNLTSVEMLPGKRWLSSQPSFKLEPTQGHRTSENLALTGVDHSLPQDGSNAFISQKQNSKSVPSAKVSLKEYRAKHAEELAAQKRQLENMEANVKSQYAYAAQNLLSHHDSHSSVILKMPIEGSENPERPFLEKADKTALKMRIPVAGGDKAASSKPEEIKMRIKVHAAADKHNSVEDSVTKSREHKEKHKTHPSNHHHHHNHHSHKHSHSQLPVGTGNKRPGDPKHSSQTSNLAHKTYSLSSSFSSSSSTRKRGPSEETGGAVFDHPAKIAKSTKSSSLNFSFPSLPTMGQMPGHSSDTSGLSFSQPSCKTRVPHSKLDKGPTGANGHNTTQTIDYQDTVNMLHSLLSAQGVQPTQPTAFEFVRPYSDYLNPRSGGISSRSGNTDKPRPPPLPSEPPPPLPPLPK

SMILES | IC50 [1] | IC50 [2] | IC50 [3] | IC50 [4]
CC(=O)N[C@@H]1CCC[C@H](C(=O)Nc2cc(-c3cnn4c3CC(C)CC4)c(Cl)cn2)C1 (single isomer, unassigned) [Example 64] | < 3 nM | 7 nM | 45 nM | 43 nM
COC1CCn2ncc(-c3cc(NC(=O)[C@H]4CCC[C@@H](NC(C)=O)C4)ncc3Cl)c2C1 (single isomer, unassigned) [Example 72] | 3 nM | 111 nM | 360 nM | 400 nM
CC(=O)N[C@@H]1CCC[C@@H](C(=O)Nc2cc(-c3cnn4c3CC(C)(C)C4)c(F)cn2)C1 (single isomer, unassigned) [Example 83] | < 3 nM | 25 nM | 61 nM | 73 nM
O=C(Nc1cc(-c2cnc3n2CCCC3)c(Cl)cn1)[C@@H]1CCCNC1 [Example 1, (R)—N-(5-chloro-4-(5,6,7,8-tetrahydroimidazo[1,2-a]pyridin-3-yl)pyridin-2-yl)piperidine-3-carboxamide] | 49.1 nM | 4500 nM | 1540 nM | 1780 nM
CC(=O)N[C@@H]1CCC[C@H](C(=O)Nc2cc(-c3cnn4c3CCCC4)ccn2)C1 [Example 3, (1S,3R)-3-acetamido-N-(4-(4,5,6,7-tetrahydropyrazolo[1,5-a]pyridin-3-yl)pyridin-2-yl)cyclohexanecarboxamide] | < 3 nM | 210 nM | 520 nM | 440 nM
O=C(Nc1cc(-c2cnn3c2CCCC3)c(Cl)cn1)[C@H]1C[C@@H](O)C1 [Example 4, Cis-N-(5-chloro-4-(4,5,6,7-tetrahydropyrazolo[1,5-a]pyridin-3-yl)pyridin-2-yl)-3-hydroxycyclobutanecarboxamide] | 3 nM | 170 nM | 220 nM | 280 nM
O=C(Nc1cc(-c2cnn3c2CCCC3)c(Cl)cn1)[C@@H]1CCCNC1 [Example 5, (R)—N-(5-chloro-4-(4,5,6,7-tetrahydropyrazolo[1,5-a]pyridin-3-yl)pyridin-2-yl)piperidine-3-carboxamide] | < 4 nM | 270 nM | 260 nM | 160 nM
O=C(Nc1cc(-c2cnn3c2CCCC3)ccn1)[C@H]1C[C@@H](O)C1 [Example 6, cis-3-hydroxy-N-(4-(4,5,6,7-tetrahydropyrazolo[1,5-a]pyridin-3-yl)pyridin-2-yl)cyclobutanecarboxamide] | 8 nM | 750 nM | 460 nM | 630 nM
CC(=O)N[C@@H]1CCC[C@H](C(=O)Nc2cc(-c3cnc4n3CCCC4)c(Cl)cn2)C1 [Example 7, (1S,3R)-3-acetamido-N-(5-chloro-4-(5,6,7,8-tetrahydroimidazo[1,2-a]pyridin-3-yl)pyridin-2-yl)cyclohexanecarboxamide] | 8 nM | 690 nM | 1450 nM | 1180 nM
CC(=O)N[C@@H]1CCC[C@H](C(=O)Nc2cc(-c3cnn4c3OCCC4)c(Cl)cn2)C1 [Example 8, (1S,3R)-3-acetamido-N-(5-chloro-4-(6,7-dihydro-5H-pyrazolo[5,1-b][1,3]oxazin-3-yl)pyridin-2-yl)cyclohexanecarboxamide] | < 3 nM | 120 nM | 690 nM | 256 nM
CC(=O)N[C@@H]1CCC[C@H](C(=O)Nc2cc(-c3cnn4c3CCC4)c(Cl)cn2)C1 [Example 10, (1S,3R)-3-acetamido-N-(5-chloro-4-(5,6-dihydro-4H-pyrrolo[1,2-b]pyrazol-3-yl)pyridin-2-yl)cyclohexanecarboxamide] | 5 nM | 217 nM | 550 nM | 333 nM
CC(=O)N[C@@H]1CCC[C@H](C(=O)Nc2cc(-c3cnn4c3COCC4)c(Cl)cn2)C1 [Example 11, (1S,3R)-3-acetamido-N-(5-chloro-4-(6,7-dihydro-4H-pyrazolo[5,1-c][1,4]oxazin-3-yl)pyridin-2-yl)cyclohexanecarboxamide] | 11 nM | 1200 nM | 2700 nM | 1930 nM
CC(=O)N[C@@H]1CCC[C@H](C(=O)Nc2cc(-c3cnc4n3CCC4)c(Cl)cn2)C1 [Example 12, (1S,3R)-3-acetamido-N-(5-chloro-4-(6,7-dihydro-5H-pyrrolo[1,2-a]imidazol-3-yl)pyridin-2-yl)cyclohexanecarboxamide] | 5 nM | 350 nM | 830 nM | 701 nM
CC(=O)N[C@@H]1CCC[C@H](C(=O)Nc2cc(-c3cnn4c3CN(C)CC4)c(Cl)cn2)C1 [Example 13, (1S,3R)-3-acetamido-N-(5-chloro-4-(5-methyl-4,5,6,7-tetrahydropyrazolo[1,5-a]pyrazin-3-yl)pyridin-2-yl)cyclohexanecarboxamide] | 6 nM | 240 nM | 820 nM | 914 nM
CC(=O)N[C@@H]1CCC[C@H](C(=O)Nc2cc(-c3cnn4c3NCCC4)c(Cl)cn2)C1 [Example 15, (1S,3R)-3-acetamido-N-(5-chloro-4-(4,5,6,7-tetrahydropyrazolo[1,5-a]pyrimidin-3-yl)pyridin-2-yl)cyclohexanecarboxamide] | 5 nM | 350 nM | 1300 nM | 669 nM
CC(=O)N[C@@H]1CCC[C@H](C(=O)Nc2cc(-c3cnn4c3CC(C)(C)C4)ccn2)C1 [Example 16, (1S,3R)-3-acetamido-N-(4-(5,5-dimethyl-5,6-dihydro-4H-pyrrolo[1,2-b]pyrazol-3-yl)pyridin-2-yl)cyclohexanecarboxamide] | < 3 nM | 28 nM | 150 nM | 100 nM
CC1(C)Cc2c(-c3ccnc(NC(=O)[C@H]4CCC[C@@H](NC(=O)C5(O)CC5)C4)c3)cnn2C1 [Example 17, (1S,3R)—N-(4-(5,5-dimethyl-5,6-dihydro-4H-pyrrolo[1,2-b]pyrazol-3-yl)pyridin-2-yl)-3-(1-hydroxycyclopropanecarboxamido)cyclohexanecarboxamide] | 4 nM | 36 nM | 207 nM | 140 nM
CC1(C)Cc2c(-c3ccnc(NC(=O)[C@H]4CCC[C@@H](NC(=O)C5COC5)C4)c3)cnn2C1 [Example 18, N-((1R,3S)-3-((4-(5,5-dimethyl-5,6-dihydro-4H-pyrrolo[1,2-b]pyrazol-3-yl)pyridin-2-yl)carbamoyl)cyclohexyl)oxetane-3-carboxamide] | < 3 nM | 14 nM | 122 nM | 71 nM
CC1(C)Cc2c(-c3cc(NC(=O)[C@H]4CCC[C@@H](NC(=O)C5COC5)C4)ncc3Cl)cnn2C1 [Example 19, N-((1R,3S)-3-((5-chloro-4-(5,5-dimethyl-5,6-dihydro-4H-pyrrolo[1,2-b]pyrazol-3-yl)pyridin-2-yl)carbamoyl)cyclohexyl)oxetane-3-carboxamide] | < 3 nM | < 3 nM | 13 nM | 11 nM
